The values that follow come from article PMC3718762, “Differential Disruption of EWS-FLI1 Binding by DNA-Binding Agents” (PLoS ONE, 2013).

Starred links: 1 amine or outer side, 2 acyl side, 3 side chain; linkers in the order of their positions; H or OH if unused. Positions of bridges follow the written chain, without caps; N, C: chain ends. Non-standard residues stand in square brackets, D forms with d. Residues, ends and D or L forms follow the SMILES beside them. Chains are numbered I, II in the order given. Actinocin(9to1) = Cc1c2oc3c(C)ccc(C(=O)[*:1])c3nc-2c(C(=O)[*:2])c(N)c1=O; NMeV = CN[C@H](C(=O)O)C(C)C; Sar = CNCC(=O)O Where only a bound is given, the exact number is not on record here.

One test relates to EWS-FLI1. Nature of the test: AlphaScreen proximity assay, binding of recombinant EWS-FLI1 to cognate DNA oligo. (In Alpha technology, singlet oxygen from a donor bead excites a nearby acceptor bead.)
Another test deals with T1, p53 (Homo sapiens, UniProt P04637).
T1 construct: made in house; host or cells: bacteria (pGex-6P-1-p53); plasmid was a gift from Dr. Guangchao Sui
Nature of the test: AlphaScreen proximity assay (counterscreen), binding of recombinant p53 to cognate DNA oligo. The source says:
An AlphaScreen assay for binding of recombinant EWS-FLI1 to DNA was previously described. Briefly, recombinant EWS-FLI1 and p53 were synthesized in bacteria transformed with pGex-6P-1-EWS-FLI1 or pGex-6P-1-p53, and bound to AlphaScreen acceptor beads. A biotinylated oligonucleotide containing two copies of the EWS-FLI1 binding motif or p53 binding motifs was bound to AlphaScreen donor beads. For EWS-FLI1, the oligo sequence was: […]. The p53 binding oligo sequence was: […]. This assay was used to screen 5,200 compounds, as previously described. IC50 values were calculated with the GraphPad Prism software package.
We developed a homogeneous AlphaScreen assay to assess the binding of recombinant EWS-FLI1 to DNA [18]. A parallel assay assessing binding of p53 to DNA was used as a counterscreen. Briefly, in these proximity assays, recombinant GST-EWS-FLI1 or GST-p53 was bound to glutathione-conjugated AlphaScreen acceptor beads, and a synthetic biotinylated oligonucleotide (oligo) containing tandem EWS-FLI1 or p53 binding sites was bound to streptavidin-conjugated AlphaScreen donor beads. Binding of GST-EWS-FLI1 or GST-p53 to the cognate oligo allows singlet oxygen transfer from donor to acceptor beads when excited at 680 nm, with resulting light emission between 520–620 nm.

Another test concerns NR0B1 promoter. The test can be described thus: NR0B1-Luc firefly luciferase reporter assay in A673 cells. Type of test: cell-based, human. Conditions: Homo sapiens, A673, 16 h, read-out: IC50 for inhibition of NR0B1 activity. The text has this:
The NR0B1 promoter was amplified from human genomic DNA using the 5′ primer- […] and 3′ primer - […]. NR0B1 promoter amplicon was cloned into the NheI and HindIII sites in the pGL.3Basic vector. The 5′ primer-[…] was used to amplify a truncated NR0B1 promoter in which the entire EWS-FLI1 binding region (GGAA repeats) was deleted to construct pGL.3b-NR0B1del. All constructs were confirmed by sequencing. All other plasmids were previously described.
(§1) Ewing sarcoma A673 cells at 50% confluence in 100 mm dishes were transfected with both 5.8 µg of pGL.3b-NR0B1 and 0.2 µg of pGL.3b-Ubc-RL reporter plasmids as above. Eight hours post-transfection, cells were trypsinized and 600 ul (2×10^5) of cells were added to each well of 24 well plates. 5 µl of different concentration of compounds or DMSO control were added to each well. Each treatment was performed in triplicate. Cells were incubated for 16 hours, then cells were lysed in 100 µl of lysis buffer and 10 µl of cell lysate was used for the dual luciferase assay. Renilla luciferase activity was used as an internal control for normalization of nonspecific transcriptional inhibition or cytotoxic effects. Experiments were repeated three times. IC50 values were calculated using Prism (Graphpad).
(§2) To determine the effect of compounds on EWS-FLI1 activity in cells, we used a reporter assay comprised of the NR0B1 promoter, a prototypical EWS-FLI1-regulated gene, driving expression of firefly luciferase. Renilla luciferase driven by the Ubiquitin C promoter (UbC-RL) was used as an internal control. Confirming prior studies, the NR0B1 promoter was verified to be highly responsive to EWS-FLI1, whereas the UbC promoter activity was not subject to regulation by EWS-FLI1 (Figure S1).
In general terms: In a reporter assay the amount or activity of a reporter protein is the signal.

The test system of the next test is EWS-FLI1-induced genes. Nature of the test: Gene expression profiling with GSEA in A673 cells. The following applies: 5 nM, 24 hours. Type of test: cell-based. Here is the method:
Ewing sarcoma A673 cells at 65% confluence were treated in duplicate with DMSO (0.2%) or 5 nM actinomycin D for 24 hours. RNA was extracted with an Absolutely RNA kit. 100 ng of total RNA was hybridized to Affymetrix Gene 1.0 ST Arrays (DFCI Microarray Core Facility). Array quality was verified before background correction, RMA normalization and log2 conversion using the Bioconductor R package affy (URL: http://www.bioconductor.org). Differential gene expression was determined using the limma Bioconductor package. Genes with a fold-change >2 and Benjamini-Hochberg-corrected p-value <0.01 were retained for further consideration. Gene expression data have been deposited in GEO (GSE45414) and can be accessed at URL: http://www.ncbi.nlm.nih.gov/geo/query/acc.cgi?acc=GSE45414.
Consistent with the enrichment of E2F targets among EWS-FLI1-induced genes we noted in the shRNA study above (Figure 3A), we also found down-regulation of this class of signatures in A673 cells treated with low-dose actinomycin D (Figure 3B, black circles).

For a further test, the system named is TC-32. The test can be described thus: MTT cell viability assay. The test is classed as cell-based. Conditions: Homo sapiens, 44 hours. Here is the method:
(§3) Cells were seeded at a density of 1.5×10^5/ml with 100 µl/well in 96 well plates and treated with actinomycin D at 158 nM, 50 nM, 15.8 nM, 5 nM, 1.58 nM, 0.5 nM and 0 (6 wells/treatment) for 44 hours. CellTiter 96 was used to assess cell viability after a 2 hr incubation at 37°C. IC50 values were calculated using Prism.
(§4) To determine if cells driven by EWS-FLI1 are more sensitive to actinomycin D, we assessed cell growth and viability using a MTT assay after 44 hrs exposure to actinomycin D. Although all cell lines were affected by actinomycin D, the Ewing sarcoma cell lines were as a group more sensitive by comparison to other cell lines tested (Figure 5).

For another test, the system named is Ovcar-3. The test can be described thus: MTT cell viability assay. Type of test: cell-based. The following applies: Homo sapiens, 44 hours. Here is the method:
as §3, §4
A general note: Formazan colour is commonly taken as a measure of viable cells.

Another test deals with A673. The test can be described thus: MTT cell viability assay. Type of test: cell-based. Conditions: Homo sapiens, 44 hours. How it is done:
as §3, §4

A further test has as its system Skov-3. Nature of the test: MTT cell viability assay. The test is classed as cell-based. Conditions: Homo sapiens, SK-OV-3, 44 hours. How it is done:
as §3, §4

Another test concerns Cado-es. Nature of the test: MTT cell viability assay. The test is classed as cell-based. Conditions: 44 hours. How it is done:
as §3, §4

The next test concerns EW-8. The test can be described thus: MTT cell viability assay. Type of test: cell-based. Conditions: EW8, 44 hours. How it is done:
as §3, §4

A further test concerns PC-3. Nature of the test: MTT cell viability assay. The test is classed as cell-based. Conditions: Homo sapiens, 44 hours. How it is done:
as §3, §4

Another test deals with TC-71. The test can be described thus: MTT cell viability assay. The test is classed as cell-based. The following applies: 44 hours. How it is done: as §3, §4
The next test relates to Hela. Nature of the test: MTT cell viability assay. The test is classed as cell-based. Conditions: Homo sapiens, 44 hours. Here is the method: as §3, §4
For the next test, the system named is UbC promoter. Nature of the test: UbC-Renilla luciferase reporter (internal control) in A673 cells. The test is classed as cell-based. The following applies: Homo sapiens, 16 hours, read-out: IC50 for inhibition of UbC promoter activity. Here is the method: as §1, §2

T1 sequence (P04637 whole entry, species assumed): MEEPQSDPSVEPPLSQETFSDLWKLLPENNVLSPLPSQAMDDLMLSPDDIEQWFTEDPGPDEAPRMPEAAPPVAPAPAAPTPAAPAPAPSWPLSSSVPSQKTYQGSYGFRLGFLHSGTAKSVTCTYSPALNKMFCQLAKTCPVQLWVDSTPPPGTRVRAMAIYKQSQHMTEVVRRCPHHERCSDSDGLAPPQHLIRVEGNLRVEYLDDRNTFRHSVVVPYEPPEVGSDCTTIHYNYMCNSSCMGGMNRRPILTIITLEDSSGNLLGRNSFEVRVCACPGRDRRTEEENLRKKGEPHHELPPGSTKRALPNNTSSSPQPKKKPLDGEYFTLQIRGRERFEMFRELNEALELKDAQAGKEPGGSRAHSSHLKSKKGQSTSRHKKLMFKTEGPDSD

One may read the IC50 as the midpoint of a concentration-inhibition curve. For `Cc1c2oc3c(C)ccc(C(=O)N[C@@H]4C(=O)N[C@H](C(C)C)C(=O)N5CCC[C@H]5C(=O)N(C)CC(=O)N(C)[C@@H](C(C)C)C(=O)O[C@@H]4C)c3nc-2c(C(=O)N[C@@H]2C(=O)N[C@H](C(C)C)C(=O)N3CCC[C@H]3C(=O)N(C)CC(=O)N(C)[C@@H](C(C)C)C(=O)O[C@@H]2C)c(N)c1=O` [Actinomycin D] (I: T[dV]P[Sar][NMeV] / II: T[dV]P[Sar][NMeV]; ester I:1-I:C, II:1-II:C; linker I:N-II:N via Actinocin(9to1)), the “Disruption of EWS-FLI1 binding compared with p53 binding in the parallel assays” value with EWS-FLI1 (EWS-FLI1 versus p53) is recorded as “greatest differential effect”. Moreover, the IC50 at EWS-FLI1 (read-out: IC50 EWS-FLI1, disruption of recombinant EWS-FLI1 binding to DNA) is 45 nM; at p53 it was above 10 µM; with NR0B1 promoter, 2.8 nM; in the test on TC-32, 1 nM; in the test with Ovcar-3 it was above 20 nM; in the test on A673, 2.5 nM. For the same molecule, the IC50 was above 20 nM in the test with Skov-3; 7 nM with Cado-es; 3.5 nM with EW-8; above 20 nM with PC-3; 3 nM in the test on TC-71; above 20 nM in the test on Hela. In the test on UbC promoter, the IC50 amounted to 14 nM. Moreover, in the test with EWS-FLI1-induced genes, the “Expression of EWS-FLI1-induced genes (GSEA)” value was “repressed to a significant degree”.
